Values quoted from earlier work in patent US8920373B2, “Reduced volume formulation of glatiramer acetate and methods of administration” (Teva Pharmaceutical Industries, Ltd., priority 2009, dated 2014).

Test system: RRMS subjects

Patients reporting Immediate Post-Injection Reaction (IPIR) (human, in vivo): 31% | Proportion of patients reporting injection-site reactions at least once (human, in vivo): 70%
Substance: glatiramer acetate
Reduction of relapse rate versus placebo (largest controlled study): 32% | Relapse rate (largest controlled study): 1.34 | Median cumulative number of Gd-enhancing lesions (over 9 months of treatment): 11 lesions
